The source made the active and inactive calls. The rule behind the calls is not given here.
Assays:
Rattus norvegicus [1] = test: Reversal of MCT-induced Sprague-Dawley rat model of elastic fiber hyperplasia at 43.3 mg/kg, po administered daily for 14 days starting from 14 days post-MCT challenge and measured post-last dose by elastic fibres staining-based microscopic analysis; assay type: functional, organism-based
Rattus norvegicus [2] = test: Hemodynamic activity in Sprague-Dawley rat assessed as effect on right ventricular systolic pressure at 43.3 mg/kg, po administered daily for 2 weeks by pressure transducer-coupled polygraphy; assay type: ADME, organism-based; details: in vivo, 336 h
[3] = Plasma concentration in Sprague-Dawley rat assessed as fasudil level at 14.4 mg/kg, po measured at 2 hrs by LC-MS/MS analysis; assay type: ADME, organism-based; details: in vivo
Rattus norvegicus [4] = test: Hemodynamic activity in Sprague-Dawley rat assessed as effect on mean pulmonary artery pressure at 43.3 mg/kg, po administered daily for 2 weeks by pressure transducer-coupled polygraphy; assay type: ADME, organism-based; details: in vivo, 336 h
Rattus norvegicus [5] = test: (§1) Anti-hypersensitive activity in MCT-induced pulmonary arterial hypertension Sprague-Dawley rat model assessed as mean pulmonary artery pressure at 43.3 mg/kg, po administered daily for 14 days starting from 14 days post-MCT challenge and measured post-last dose by pressure transducer-coupled polygraphy (reference value: 36 +/- 2.83 mmHg); assay type: functional
Rattus norvegicus [6] = test: Hemodynamic activity in Sprague-Dawley rat assessed as effect on mean systemic arterial pressure at 43.3 mg/kg, po administered daily for 2 weeks by pressure transducer-coupled polygraphy; assay type: ADME, organism-based; details: in vivo, 336 h
Rattus norvegicus [7] = test: Hemodynamic activity in Sprague-Dawley rat assessed as effect on right ventricular hypertrophy index at 43.3 mg/kg, po administered daily for 2 weeks by pressure transducer-coupled polygraphy; assay type: ADME, organism-based; details: in vivo, 336 h
[8] = Cardiotoxicity in Sprague-Dawley rat assessed as effect on cross-sectional area of cardiomyocyte at 43.3 mg/kg, po administered daily for 2 weeks by hematoxylin and eosin staining-based microscopic analysis (reference value: 209.53 +/- 26.44 micrometer2); assay type: toxicity, organism-based; details: in vivo, 336 h
Rattus norvegicus [9] = test: (§2) Anti-hypersensitive activity in MCT-induced pulmonary arterial hypertension Sprague-Dawley rat model assessed as reduction in cardiomyocyte hypertrophy by measuring cardiac fibrosis at 43.3 mg/kg, po administered daily for 14 days starting from 14 days post-MCT challenge and measured post-last dose by Masson's trichrome staining-based microscopic analysis (reference value: 11.74 +/- 3.24 %); assay type: functional; set-up: scale not given: the % may be the effect or the level left
[10] = AUMC (0 to t) in Sprague-Dawley rat at 14.4 mg/kg, po by LC-MS/MS analysis; assay type: ADME, organism-based; details: in vivo
[11] = Tmax in Sprague-Dawley rat at 14.4 mg/kg, po by LC-MS/MS analysis; assay type: ADME, organism-based; details: in vivo
[12] = Cmax in Sprague-Dawley rat at 14.4 mg/kg, po by LC-MS/MS analysis; assay type: ADME, organism-based; set-up: dose 14.4 mg/kg, route oral; details: in vivo
Rattus norvegicus [13] = test: as §2, with “lung” for “reduction in cardiomyocyte hypertrophy by measuring cardiac”, “6.12” for “11.74”, “1.66%)” for “3.24 %)”; assay type: functional
Rattus norvegicus [14] = test: as §2, with “cross-sectional area of cardiomyocyte” for “cardiac fibrosis”, “hematoxylin and eosin” for “Masson's trichrome”, “418” for “11.74”, “50.88 micrometer2)” for “3.24 %)”; assay type: functional
Rattus norvegicus [15] = test: as §1, with “right ventricular systolic” for “mean pulmonary artery”, “59.06” for “36”, “3.26” for “2.83”; assay type: functional
[16] = Plasma concentration in Sprague-Dawley rat assessed as fasudil level at 14.4 mg/kg, po measured at 0.25 hrs by LC-MS/MS analysis; assay type: ADME, organism-based; details: in vivo
Rattus norvegicus [17] = test: Anti-hypersensitive activity in MCT-induced pulmonary arterial hypertension Sprague-Dawley rat model assessed as pulmonary artery medial thickness at 43.3 mg/kg, po administered daily for 14 days starting from 14 days post-MCT challenge and measured post-last dose by hematoxylin and eosin staining-based microscopic analysis (reference value: […] +/- […]); assay type: functional
[18] = AUC (0 to t) in Sprague-Dawley rat at 14.4 mg/kg, po by LC-MS/MS analysis; assay type: ADME, organism-based; details: in vivo
[19] = Cardiotoxicity in Sprague-Dawley rat assessed as cardiac fibrosis at 43.3 mg/kg, po administered daily for 2 weeks by hematoxylin and eosin staining-based microscopic analysis (reference value: 2.99 +/- 1.34 %); assay type: toxicity, organism-based; details: in vivo, 336 h
[20] = Plasma concentration in Sprague-Dawley rat assessed as fasudil level at 14.4 mg/kg, po measured at 0.5 hrs by LC-MS/MS analysis; assay type: ADME, organism-based; details: in vivo
[21] = AUMC (0 to infinity) in Sprague-Dawley rat at 14.4 mg/kg, po by LC-MS/MS analysis; assay type: ADME, organism-based; details: in vivo
[22] = Elimination rate constant in Sprague-Dawley rat at 14.4 mg/kg, po by LC-MS/MS analysis; assay type: ADME, organism-based; details: in vivo
[23] = Plasma concentration in Sprague-Dawley rat assessed as fasudil level at 14.4 mg/kg, po measured at 4 hrs by LC-MS/MS analysis; assay type: ADME, organism-based; details: in vivo
[24] = Plasma concentration in Sprague-Dawley rat assessed as fasudil level at 14.4 mg/kg, po measured at 1 hr by LC-MS/MS analysis; assay type: ADME, organism-based; details: in vivo
[25] = AUC (0 to infinity) in Sprague-Dawley rat at 14.4 mg/kg, po by LC-MS/MS analysis; assay type: ADME, organism-based; set-up: dose 14.4 mg/kg, time infinity, route oral; details: in vivo
[26] = MRT in Sprague-Dawley rat at 14.4 mg/kg, po by LC-MS/MS analysis; assay type: ADME, organism-based; details: in vivo

O=S(=O)(c1cccc2cnccc12)N1CCCNCC1
Activity (Rattus norvegicus [1]): Active

O=C(O)C(Cl)Cl.O=S(=O)(c1cccc2cnccc12)N1CCCNCC1
Activity (Rattus norvegicus [2]): Non-Toxic
Cp [3]: 18.4 ng/mL
Activity (Rattus norvegicus [4]): Non-Toxic
Activity (Rattus norvegicus [5]): 25.67 mmHg
Activity (Rattus norvegicus [6]): Non-Toxic
Activity (Rattus norvegicus [7]): Non-Toxic
Activity [8]: 190.6 um2
Activity (Rattus norvegicus [9]): 3.69%
AUMCt [10]: 119 hr.hr.ng/ml
Tmax [11]: 15 min
Cmax [12]: 113 ng/mL
Activity (Rattus norvegicus [13]): 6.12%
Activity (Rattus norvegicus [14]): 282.4 um2
Activity (Rattus norvegicus [15]): 49.54 mmHg
Cp [16]: 113 ng/mL
Activity (Rattus norvegicus [17]): 0.2
AUC(0-t) [18]: 109 ng·h/mL
Activity [19]: 2.25%
Cp [20]: 55.5 ng/mL
AUMC [21]: 160 hr.hr.ng/ml
k el [22]: 0.000219 s⁻¹
Cp [23]: 4.46 ng/mL
Cp [24]: 38 ng/mL
AUC(0-inf) [25]: 117 ng·h/mL
MRT [26]: 77.4 min

— ChEMBL document CHEMBL4340557, “Fasudil dichloroacetate (FDCA), an orally available agent with potent therapeutic efficiency on monocrotaline-induced pulmonary arterial hypertension rats” (Bioorg Med Chem Lett, 2019)
